Measurements published in patent US20240003884A1, “METHODS AND COMPOSITIONS USING NON-INVASIVE PLASMA GLYCOMIC AND METABOLIC BIOMARKERS OF POST-TREATMENT CONTROL OF HIV” (priority 2020, published 2024).

What was measured:
[1] = system: J-Lat 10.6 cells (latent HIV provirus); settings: J-Lat clone 10.6
Procedure: (§1) (FIG. 2A) JLat 5A8 or 10.6 clones were stimulated with appropriate stimuli in the presence or absence of L-glutamic acid or vehicle control (cell culture suitable HCl solution). Geometric mean fluorescence intensity (MFI) of HIV-regulated GFP expression was measured by flow cytometry. Cell viability was determined by LIVE/DEAD aqua staining. (FIG. 2B) J-Lat 5A8 cells (n=3) and (FIG. 2C) J-Lat 10.6 cells (n=3), were treated with PMA/I (2 nM/500 nM), ImmunoCult Human CD3/CD28 T Cell Activator (25 μl per 10^6 cells), or TNFα (10 ng/ml) in the presence or absence of L-glutamic acid (5 mM) or appropriate control. Bar graphs display mean±SD values, and statistical comparisons were performed using two-tailed unpaired t-tests. (FIG. 2D) THP-1 cells were differentiated into macrophage-like cells using PMA. Cells were then treated with L-glutamic acid (5 mM), Pyruvic acid (2 mM), or appropriate controls for 2 hours prior to LPS/IFNγ stimulation for 5 hours. […] Bar graphs display mean±SD, and statistical comparisons were performed using two-tailed unpaired t-tests. […] Bar graphs display mean±SD, and statistical comparisons were performed using two-tailed unpaired t-tests.

[2] = system: THP-1 derived macrophage-like cells; experiment: LPS/IFNγ-mediated cytokine secretion from THP-1 derived macrophage-like cells (MSD multiplex, ELISA); type: cell-based; settings: 2 h before LPS/IFNγ for 5 h
Procedure: as §1
In-vitro examination of the impact of L-glutamic acid and pyruvate on myeloid inflammation. THP1 cells were plated in 24-well plates at a density of 7×10^5 cells per well. To differentiate them into macrophages-like, 100 nM of PMA (Sigma catalog #P8139) was added and incubated for 72 hours. After incubation, media was aspirated, and each well was gently washed twice with R10 media. Cells were then rested for 24 hours on R10 media without PMA. After 24 hours, cells were washed again with serum-free RPMI 1640 media and kept on this media for the rest of experiment. Macrophage-like THP1 cells were pre-incubated with L-glutamic acid (5 mM) or Sodium Pyruvate solution (2 mM, Sigma catalog #S8636-100 ml) for 2 hours before stimulating with Escherichia coli serotype O127:B8 LPS (50 ng/ml; Sigma catalog #L3129-10MG) and IFNγ (10 ng/ml; R&D Systems catalog #285-IF-100, respectively). After 5 hours of incubation with LPS/IFNγ, culture supernatants were collected for cytokine quantitation. Supernatant levels of IL-10, IL-12p70, IL-13, IL-1β, IL-2, IL-4, IL-6, and IL-8 were determined using U-PLEX Proinflam Combo 1 (Meso Scale Diagnostic #K15049k-1) according to manufacture. Levels of TNF-α were quantified using DuoSet ELISA kits (R&D Systems catalog #DY210-05).
Beyond the direct impact on latent viral reactivation, plasma metabolites may exert effects on myeloid inflammation, and such effects may underlie HIV control during ATI. This possibility was tested by examining the effects of L-glutamic acid and pyruvate on lipopolysaccharides (LPS)-mediated secretion of pro-inflammatory cytokines from THP-1 derived macrophage-like cells. These cells are characterized by high basal glycolytic activity, which closely reflects the Warburg-like phenotype observed in HIV-infected individuals37. […] Cells were treated with L-glutamic acid, pyruvate, or appropriate controls for 2 h before stimulating with LPS and IFNγ for 5 h (FIG. 2D).

[3] = system: J-Lat 5A8 cells (latent HIV provirus); settings: J-Lat clone 5A8
Procedure: as §1
Bar graphs display mean±SD values, and statistical comparisons were performed using two-tailed unpaired t-tests.

[4] = L-glutamic acid 5 mM with stimuli
[5] = L-glutamic acid 5 mM, 24 hours, vs stimuli alone
[6] = pyruvate 2 mM, listed as Pyruvate

SMILES	Cell viability (LIVE/DEAD aqua staining) [1, 4]	PMA/ionomycin-induced reactivation of latent HIV (GFP MFI) [1, 5]	TNFα-induced reactivation of latent HIV (GFP MFI) ([1]; TNFα 10 ng/ml, L-glutamic acid 5 mM, 24 hours)	LPS/IFNγ-mediated IL-6 secretion ([2]; L-glutamic acid 5 mM)	LPS/IFNγ-mediated TNFα secretion ([2]; L-glutamic acid 5 mM)	LPS/IFNγ-mediated anti-inflammatory IL-10 production ([2]; L-glutamic acid 5 mM)	Cell viability (LIVE/DEAD aqua staining) [3, 4]	PMA/ionomycin-induced reactivation of latent HIV (GFP MFI) [3, 5]	αCD3/αCD28-induced reactivation of latent HIV (GFP MFI) [3, 5]	LPS/IFNγ-mediated IL-6 secretion ([2]; pyruvate 2 mM)	LPS/IFNγ-mediated TNFα secretion ([2]; pyruvate 2 mM)	LPS/IFNγ-mediated IL-6 secretion [2, 6]	LPS/IFNγ-mediated TNFα secretion [2, 6]
N[C@@H](CCC(=O)O)C(=O)O [L-glutamic acid]	without impacting viability	inhibited	inhibited	significantly inhibited	significantly inhibited	significantly increased	without impacting viability	significantly inhibited	significantly inhibited	–	–	–	–
CC(=O)C(=O)O [pyruvate, Pyruvic acid]	–	–	–	–	–	–	–	–	–	increased	increased	significantly increased	significantly increased
